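Following 48 hours of exposure in 96-well plates, responses at five concentrations were used to interpolate endpoints linearly. The concentration for 50% growth inhibition is given as GI50.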 Activity calls are given as the source filed them. No stated cut-off is given here; in the data, active = GI50 up to about 1.1 µM and inactive = higher.
What was measured:
Assay in all cases: DTP human tumour cell line panel, 48 h
HT-29 = tested on: HT-29
NCI-H522 = tested on: NCI-H522
M19-MEL = tested on: M19-MEL
SF-539 = tested on: SF-539
KM12 = tested on: KM12
NCI-H460 = tested on: NCI-H460
HOP-62 = tested on: HOP-62
CCRF-CEM = tested on: CCRF-CEM
SF-268 = tested on: SF-268
HOP-92 = tested on: HOP-92
SK-MEL-2 = tested on: SK-MEL-2
OVCAR-5 = tested on: OVCAR-5
IGROV-1 = tested on: IGROV-1
ACHN = tested on: ACHN
EKVX = tested on: EKVX
HCT-15 = tested on: HCT-15
M14 = tested on: M14
OVCAR-3 = tested on: OVCAR-3
MDA-N = tested on: MDA-N
MDA-MB-435 = tested on: MDA-MB-435

SMILES	GI50 (HT-29)	GI50 (NCI-H522)	GI50 (M19-MEL)	GI50 (SF-539)	GI50 (KM12)	GI50 (NCI-H460)	GI50 (HOP-62)	GI50 (CCRF-CEM)	GI50 (SF-268)	GI50 (HOP-92)	GI50 (SK-MEL-2)	GI50 (OVCAR-5)	GI50 (IGROV-1)	GI50 (ACHN)	GI50 (EKVX)	GI50 (HCT-15)	GI50 (M14)	GI50 (OVCAR-3)	GI50 (MDA-N)	GI50 (MDA-MB-435)
COC(=O)C1C(C(=O)OC)C2C(=O)C3C(C(=O)OC)C(C(=O)OC)C3C(=O)C12 (configuration not stated)	> 100 µM (inactive)	> 100 µM (inactive)	> 100 µM (inactive)	> 100 µM (inactive)	> 100 µM (inactive)	> 100 µM (inactive)	> 100 µM (inactive)	> 100 µM (inactive)	> 100 µM (inactive)	73.5 µM (inactive)	> 100 µM (inactive)	> 100 µM (inactive)	> 100 µM (inactive)	> 100 µM (inactive)	> 100 µM (inactive)	–	–	–	–	–
CN/C(=N/C#N)NCc1ccccc1	> 100 µM (inactive)	> 100 µM (inactive)	> 100 µM (inactive)	> 100 µM (inactive)	> 100 µM (inactive)	> 100 µM (inactive)	> 100 µM (inactive)	> 100 µM (inactive)	> 100 µM (inactive)	> 100 µM (inactive)	> 100 µM (inactive)	> 100 µM (inactive)	> 100 µM (inactive)	> 100 µM (inactive)	0.0512 µM (active)	> 100 µM	> 100 µM (inactive)	> 100 µM (inactive)	–	–
COc1ccc(NC(=O)/C(=C/c2ccccc2)C(C)=O)cc1	13.3 µM (inactive)	1.73 µM (inactive)	14.3 µM (inactive)	15.3 µM (inactive)	12.4 µM (inactive)	21.6 µM (inactive)	18 µM (inactive)	6.12 µM (inactive)	15.2 µM (inactive)	15.8 µM (inactive)	14.6 µM (inactive)	19.6 µM (inactive)	17.5 µM (inactive)	20.7 µM (inactive)	22.5 µM (inactive)	13.2 µM	12.9 µM (inactive)	16.3 µM (inactive)	–	–
C=C[Si](C)(C)COC(=O)/C(C#N)=C/C=C/c1ccccc1	> 100 µM (inactive)	46.3 µM (inactive)	99.5 µM (inactive)	> 100 µM (inactive)	> 100 µM (inactive)	> 100 µM (inactive)	> 100 µM (inactive)	32.3 µM (inactive)	> 100 µM (inactive)	> 100 µM (inactive)	> 100 µM (inactive)	> 100 µM (inactive)	> 100 µM (inactive)	> 100 µM (inactive)	> 100 µM (inactive)	78.2 µM	> 100 µM (inactive)	34.8 µM (inactive)	–	–
Cc1nc2ccccc2nc1CC(=O)C(=O)Nc1ccc(Cl)cc1Cl	–	57.4 µM (inactive)	> 100 µM (inactive)	> 100 µM (inactive)	> 100 µM (inactive)	> 100 µM (inactive)	> 100 µM (inactive)	> 100 µM (inactive)	> 100 µM (inactive)	> 100 µM (inactive)	> 100 µM (inactive)	> 100 µM (inactive)	> 100 µM (inactive)	> 100 µM (inactive)	> 100 µM (inactive)	> 100 µM	> 100 µM (inactive)	> 100 µM (inactive)	–	–
Cc1nc(N)nc(N)c1CCCCc1ccccc1	2.47 µM (inactive)	10.2 µM (inactive)	12.4 µM (inactive)	10.7 µM (inactive)	18.1 µM (inactive)	3.32 µM (inactive)	13.6 µM (inactive)	3.72 µM (inactive)	11 µM (inactive)	22.5 µM (inactive)	16.7 µM (inactive)	6.93 µM (inactive)	5.41 µM (inactive)	9.2 µM (inactive)	20 µM (inactive)	5.97 µM	6.21 µM (inactive)	9.95 µM (inactive)	–	–
CC1OC(OC2C(CO)OC(O[C@H]3CC[C@@]4(C)C(=CC[C@H]5[C@@H]6C[C@@H]7O[C@]8(CC[C@@H](C)CN8)[C@@H](C)[C@@H]7[C@@]6(C)CC[C@@H]54)C3)C(O)C2O)C(O)C(O)C1O (some centres not stated)	> 100 µM (inactive)	70.6 µM (inactive)	> 100 µM (inactive)	> 100 µM (inactive)	> 100 µM (inactive)	> 100 µM (inactive)	> 100 µM (inactive)	> 100 µM (inactive)	> 100 µM (inactive)	31.7 µM (inactive)	> 100 µM (inactive)	> 100 µM (inactive)	> 100 µM (inactive)	> 100 µM (inactive)	76 µM (inactive)	> 100 µM	> 100 µM (inactive)	> 100 µM (inactive)	–	–
CC(C)=CC(=O)CC(=O)C(=O)Nc1ccc(C)c(C)c1	> 100 µM (inactive)	> 100 µM (inactive)	> 100 µM (inactive)	> 100 µM (inactive)	> 100 µM (inactive)	–	–	> 100 µM (inactive)	> 100 µM (inactive)	> 100 µM (inactive)	> 100 µM (inactive)	–	> 100 µM (inactive)	> 100 µM (inactive)	> 100 µM (inactive)	> 100 µM	> 100 µM (inactive)	> 100 µM (inactive)	–	–
O=[N+]([O-])c1ccc(C2=Nn3cnnc3SC2)o1	11.3 µM (inactive)	> 10 µM (inactive)	4.02 µM (inactive)	17.6 µM (inactive)	18.3 µM (inactive)	10.6 µM (inactive)	38.2 µM (inactive)	23 µM (inactive)	19.6 µM (inactive)	26.1 µM (inactive)	20.9 µM (inactive)	22.2 µM (inactive)	> 10 µM (inactive)	15.8 µM (inactive)	–	12 µM	15.1 µM (inactive)	17.1 µM (inactive)	–	–
O/N=C1/C(=C/c2ccc(OCc3ccccc3)cc2)CCCC1C(NO)c1ccc(OCc2ccccc2)cc1 (configuration not stated)	5.24 µM (inactive)	6.27 µM (inactive)	22.2 µM (inactive)	24.9 µM (inactive)	24.2 µM (inactive)	14.2 µM (inactive)	38.9 µM (inactive)	11.1 µM (inactive)	–	11.1 µM (inactive)	8.55 µM (inactive)	> 100 µM (inactive)	> 100 µM (inactive)	17 µM (inactive)	5.43 µM (inactive)	6.24 µM	4.98 µM (inactive)	14.2 µM (inactive)	–	–
O=C(Nc1ccc([N+](=O)[O-])cc1[N+](=O)[O-])C(=O)C(C(=O)c1ccc(Cl)c(Cl)c1)C1OC(=O)c2ccccc21 (configuration not stated)	25.8 µM (inactive)	17.1 µM (inactive)	25.1 µM (inactive)	> 10 µM (inactive)	18.4 µM (inactive)	> 10 µM (inactive)	16.7 µM (inactive)	22.6 µM (inactive)	25.3 µM (inactive)	1.26 µM (inactive)	> 10 µM (inactive)	25.8 µM (inactive)	22.2 µM (inactive)	23.3 µM (inactive)	22.1 µM (inactive)	27.2 µM	> 10 µM (inactive)	27.7 µM (inactive)	–	–
COc1ccc(-c2c3ccccc3c(-c3ccc(OC)cc3)c3ccccc23)cc1	> 100 µM (inactive)	> 100 µM (inactive)	> 100 µM (inactive)	> 100 µM (inactive)	> 100 µM (inactive)	> 100 µM (inactive)	> 100 µM (inactive)	> 100 µM (inactive)	> 100 µM (inactive)	> 100 µM (inactive)	> 100 µM (inactive)	> 100 µM (inactive)	> 100 µM (inactive)	> 100 µM (inactive)	> 100 µM (inactive)	> 100 µM	> 100 µM (inactive)	> 100 µM (inactive)	–	–
CC1OC(n2cc(F)c(=O)[nH]c2=O)C=CC1O (configuration not stated)	> 100 µM (inactive)	> 100 µM (inactive)	> 100 µM (inactive)	> 100 µM (inactive)	> 100 µM (inactive)	> 100 µM (inactive)	> 100 µM (inactive)	> 51.3 µM (inactive)	> 100 µM (inactive)	> 100 µM (inactive)	> 100 µM (inactive)	> 100 µM (inactive)	> 100 µM (inactive)	> 100 µM (inactive)	> 100 µM (inactive)	> 100 µM	> 100 µM (inactive)	> 100 µM (inactive)	–	–
CNC(=O)OCc1nc([S+](C)[O-])n(C)c1COC(=O)NC (configuration not stated)	> 100 µM (inactive)	> 100 µM (inactive)	> 45.1 µM (inactive)	> 100 µM (inactive)	> 100 µM (inactive)	> 100 µM (inactive)	> 100 µM (inactive)	> 100 µM (inactive)	> 100 µM (inactive)	> 48.4 µM (inactive)	> 100 µM (inactive)	> 100 µM (inactive)	> 50.4 µM (inactive)	> 24.2 µM (inactive)	> 100 µM (inactive)	> 100 µM	> 29.1 µM (inactive)	> 100 µM (inactive)	–	–
CCCN(CCC)C(=O)Cc1c2n(c3ccccc13)Cc1ccccc1-2	61.8 µM (inactive)	40 µM (inactive)	56.6 µM (inactive)	> 100 µM (inactive)	> 100 µM (inactive)	63.7 µM (inactive)	> 100 µM (inactive)	> 100 µM (inactive)	> 100 µM (inactive)	5 µM (inactive)	94.4 µM (inactive)	–	–	12 µM (inactive)	> 100 µM (inactive)	> 100 µM	> 100 µM (inactive)	> 100 µM (inactive)	–	–
Cc1cn([C@H]2C[C@H](N=[N+]=[N-])[C@@H](CO)O2)c(=O)[nH]c1=O [ZIDOVUDINE]	238 µM (inactive)	> 100 µM (inactive)	> 100 µM (inactive)	–	90.8 µM (inactive)	42.7 µM (inactive)	> 100 µM (inactive)	288 µM (inactive)	–	> 100 µM (inactive)	> 100 µM (inactive)	> 84.5 µM (inactive)	> 100 µM (inactive)	> 100 µM (inactive)	> 100 µM (inactive)	> 100 µM	> 100 µM (inactive)	> 100 µM (inactive)	655 µM (inactive)	565 µM (inactive)
